Experimental findings from the Kinase Knowledgebase extract (Sharma et al. 2016) are described below.

SMILES strings stand for the structures.

For one test, the target named is PIK3CG (human) (UniProt P48736). Nature of the test: Enzyme Assay.
Chain of PIK3CG (human) (P48736 whole entry, looked up): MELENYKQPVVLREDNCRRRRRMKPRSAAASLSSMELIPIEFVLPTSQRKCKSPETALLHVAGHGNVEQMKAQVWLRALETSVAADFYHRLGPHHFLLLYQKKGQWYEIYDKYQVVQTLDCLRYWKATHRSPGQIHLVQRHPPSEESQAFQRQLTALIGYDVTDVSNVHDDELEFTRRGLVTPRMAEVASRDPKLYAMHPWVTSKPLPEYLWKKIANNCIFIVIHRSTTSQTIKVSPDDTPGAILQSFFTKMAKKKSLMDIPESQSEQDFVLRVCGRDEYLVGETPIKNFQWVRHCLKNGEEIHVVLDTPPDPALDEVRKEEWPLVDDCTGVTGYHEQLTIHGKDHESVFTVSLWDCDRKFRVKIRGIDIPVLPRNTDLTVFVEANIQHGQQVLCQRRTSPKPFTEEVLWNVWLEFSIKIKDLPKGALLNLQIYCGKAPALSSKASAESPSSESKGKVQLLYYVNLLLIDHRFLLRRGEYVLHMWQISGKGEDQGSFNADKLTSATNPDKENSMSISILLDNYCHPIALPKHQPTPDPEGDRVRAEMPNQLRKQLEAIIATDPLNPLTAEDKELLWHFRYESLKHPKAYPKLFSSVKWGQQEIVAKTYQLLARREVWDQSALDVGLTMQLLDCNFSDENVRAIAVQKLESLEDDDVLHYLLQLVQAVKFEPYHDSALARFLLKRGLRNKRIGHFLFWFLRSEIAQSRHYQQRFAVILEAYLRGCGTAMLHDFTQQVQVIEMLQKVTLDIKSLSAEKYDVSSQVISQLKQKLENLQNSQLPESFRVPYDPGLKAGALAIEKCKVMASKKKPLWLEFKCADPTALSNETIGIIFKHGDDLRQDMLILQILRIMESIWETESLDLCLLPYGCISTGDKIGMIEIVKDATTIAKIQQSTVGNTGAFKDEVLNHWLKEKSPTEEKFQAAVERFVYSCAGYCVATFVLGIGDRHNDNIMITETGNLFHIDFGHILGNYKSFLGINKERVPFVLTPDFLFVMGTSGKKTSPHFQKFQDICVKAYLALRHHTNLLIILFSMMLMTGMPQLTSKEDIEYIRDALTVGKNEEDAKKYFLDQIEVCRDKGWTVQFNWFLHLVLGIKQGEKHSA
Broadly, the IC50 is the concentration at which inhibition is half-maximal. Higher therefore signals weaker potency in that assay. For `C[C@H](Nc1ncnc(N)c1C#N)c1nc2cccc(Cl)c2c(=O)n1CCCN(C)C`, the 50% inhibitory concentration (IC50) was not below 10 µM. On the same count and under the same terms, to `COCCCn1c([C@H](C)Nc2ncnc(N)c2C#N)nc2c(F)ccc(F)c2c1=O` belongs not below 10 µM; to `C[C@H](Nc1ncnc(N)c1C#N)c1nc2cccc(Cl)c2c(=O)n1CC1CCCNC1` (stereo not given in full), not below 10 µM.

For the compound `C[C@H](Nc1ncnc(N)c1C#N)c1nc2cccc(Cl)c2c(=O)n1CCCN1CCN(C)CC1`, the IC50 was not below 10 µM.

As for `C[C@H](Nc1ncnc(N)c1C#N)c1nc2cccc(Cl)c2c(=O)n1CC1CCCCN1` (stereo not given in full), the IC50 was not below 10 µM. Same read-out and setting: the result for `COCCCn1c([C@H](C)Nc2ncnc(N)c2C#N)nc2c(Cl)ccc(Cl)c2c1=O` reads more than 10 µM; that for `C[C@H](Nc1ncnc(N)c1C#N)c1nc2cccc(Cl)c2c(=O)n1C[C@@H](O)CO`, not below 10 µM. Still for that read-out and setting: the result for `C[C@H](Nc1ncnc(N)c1C#N)c1nc2cccc(Cl)c2c(=O)n1N(C)CCN` reads not below 10 µM. The compound `Cc1cccc2nc([C@H](C)Nc3ncnc(N)c3C#N)n(CCCN)c(=O)c12` yielded an IC50 not below 10 µM. Same read-out and setting: to `C[C@H](Nc1ncnc(N)c1Cl)c1nc2cccc(Cl)c2c(=O)n1CCCN` belongs not below 10 µM; to `C[C@H](Nc1ncnn2ccnc12)c1nc2cccc(Cl)c2c(=O)n1CCCN`, not below 10 µM; to `C[C@H](Nc1ncnc(N)c1C#N)c1nc2cccc(Cl)c2c(=O)n1CCN1CCCC1`, not below 10 µM. In turn, `N#Cc1c(N)ncnc1N[C@H](c1nc2cccc(Cl)c2c(=O)n1CCCN)C1CC1` registered an IC50 not below 10 µM. Same read-out and setting: the result for `N#Cc1c(N)nc(N)nc1N[C@@H](c1ccccc1)c1nc2cccc(Cl)c2c(=O)n1CCCN` reads not below 10 µM; that for `C[C@H](Nc1ncnc(N)c1C#N)c1nc2cccc(Cl)c2c(=O)n1CC1CCNC1` (stereo not given in full), not below 10 µM; that for `C[C@H](Nc1ncnc(N)c1C#N)c1nc2cccc(Cl)c2c(=O)n1CCC(C)(C)N`, not below 10 µM. On the same count and under the same terms, to `C[C@H](Nc1nc(N)nc(N)c1C#N)c1nc2cccc(Cl)c2c(=O)n1C[C@H]1CCCNC1` belongs 3.2 µM; to `CC[C@H](Nc1ncnc(N)c1C#N)c1nc2cccc(Cl)c2c(=O)n1CCCN`, not below 10 µM. `C[C@H](Nc1ncnc(N)c1C#N)c1nc2cccc(Cl)c2c(=O)n1CCCNCc1ccccc1` gave a 50% inhibitory concentration (IC50) not below 10 µM. Turning to `C[C@H](Nc1ncnc(N)c1C#N)c1nc2cccc(Cl)c2c(=O)n1CC1CNCCO1` (stereo not given in full), the IC50 was not below 10 µM. On to `CC(CCN)n1c([C@H](C)Nc2ncnc(N)c2C#N)nc2cccc(Cl)c2c1=O` (stereo not given in full), for which the IC50 was not below 10 µM. On the same count and under the same terms, to `C[C@H](Nc1ncnc(N)c1C#N)c1nc2cccc(Cl)c2c(=O)n1N(CCN)Cc1ccccc1` belongs not below 10 µM; to `Cc1ncnc(N[C@@H](C)c2nc3cccc(Cl)c3c(=O)n2CCCN)c1C#N`, not below 10 µM. On the same count and under the same terms, to `C[C@H](Nc1ncnc(N)c1C#N)c1nc2cccc(Cl)c2c(=O)n1CCN` belongs not below 10 µM.

The compound `NCCCn1c([C@@H](Nc2nc(N)nc(N)c2Cl)C2CC2)nc2cccc(Cl)c2c1=O` yielded an IC50 not below 10 µM. On the same count and under the same terms, to `C[C@H](Nc1ncnc2[nH]cnc12)c1nc2cccc(Cl)c2c(=O)n1CCCN1CCOCC1` belongs not below 10 µM. The same measure, in the same setting: the result for `C[C@H](Nc1nc(N)nc(N)c1C#N)c1nc2cccc(Cl)c2c(=O)n1C[C@@H]1CCCNC1` reads 1.3 µM. Compound `NCCCn1c([C@@H](Nc2ncnn3ccnc23)C2CC2)nc2cccc(Cl)c2c1=O` showed an IC50 not below 10 µM. Same read-out and setting: the result for `CC(C)C[C@H](Nc1ncnc(N)c1C#N)c1nc2cccc(Cl)c2c(=O)n1CCCN` reads not below 10 µM; that for `C[C@H](Nc1ncnc(N)c1C#N)c1nc2cccc(Cl)c2c(=O)n1CCCCN`, not below 10 µM; that for `C[C@H](NC(=O)c1nccnc1N)c1nc2cccc(Cl)c2c(=O)n1CCCN`, not below 10 µM.

`C[C@H](Nc1ncnc(N)c1C#N)c1nc2cccc(Cl)c2c(=O)n1CCN1CCN(C)CC1`: the IC50 was not below 10 µM.

With `C[C@H](Nc1ncnc(N)c1C#N)c1nc2cccc(Cl)c2c(=O)n1CC1CCNCC1`, the IC50 is not below 10 µM.

Regarding `C[C@H](Nc1nc(N)nc(N)c1C#N)c1nc2cccc(Cl)c2c(=O)n1N(CCN)Cc1ccccc1`, the IC50 was not below 10 µM. Still for that read-out and setting: to `C[C@H](Nc1ncnc2scnc12)c1nc2cccc(Cl)c2c(=O)n1CCC(C)(C)N` belongs not below 10 µM; to `CC(CN)Cn1c([C@H](C)Nc2ncnc(N)c2C#N)nc2cccc(Cl)c2c1=O` (stereo not given in full), not below 10 µM; to `C[C@H](Nc1nc(N)nc(N)c1C#N)c1nc2cccc(Cl)c2c(=O)n1CCN1CCCC1`, not below 10 µM.

`Nc1nc(N)c(Cl)c(N[C@H](c2nc3c(Cl)ccc(Cl)c3c(=O)n2[C@H]2C[C@@H](O)C2)C2CC2)n1` showed an IC50 not below 10 µM. On the same count and under the same terms, the result for `CC(CN)n1c([C@H](C)Nc2ncnc(N)c2C#N)nc2cccc(Cl)c2c1=O` (stereo not given in full) reads not below 10 µM. On the same count and under the same terms, to `C[C@H](Nc1ncnc(N)c1C#N)c1nc2cccc(Cl)c2c(=O)n1CCCN1CCCCC1` belongs not below 10 µM; to `C[C@H](Nc1nc(N)nc(N)c1Cl)c1nc2cccc(Cl)c2c(=O)n1CCCN`, not below 10 µM; to `C[C@H](Nc1ncnc(N)c1C#N)c1nc2cccc(Cl)c2c(=O)n1CC1CCCN1` (stereo not given in full), not below 10 µM. Same read-out and setting: the result for `CNCCCn1c([C@H](C)Nc2ncnc(N)c2C#N)nc2cccc(Cl)c2c1=O` reads not below 10 µM; that for `C[C@H](Nc1ncnc(N)c1C#N)c1nc2cccc(Cl)c2c(=O)n1[C@H]1C[C@H](N)C1`, not below 10 µM.

Another test deals with PIK3CB (Human) (UniProt P42338). Nature of the test: Enzyme Assay.
Chain of PIK3CB (Human) (P42338 whole entry, looked up): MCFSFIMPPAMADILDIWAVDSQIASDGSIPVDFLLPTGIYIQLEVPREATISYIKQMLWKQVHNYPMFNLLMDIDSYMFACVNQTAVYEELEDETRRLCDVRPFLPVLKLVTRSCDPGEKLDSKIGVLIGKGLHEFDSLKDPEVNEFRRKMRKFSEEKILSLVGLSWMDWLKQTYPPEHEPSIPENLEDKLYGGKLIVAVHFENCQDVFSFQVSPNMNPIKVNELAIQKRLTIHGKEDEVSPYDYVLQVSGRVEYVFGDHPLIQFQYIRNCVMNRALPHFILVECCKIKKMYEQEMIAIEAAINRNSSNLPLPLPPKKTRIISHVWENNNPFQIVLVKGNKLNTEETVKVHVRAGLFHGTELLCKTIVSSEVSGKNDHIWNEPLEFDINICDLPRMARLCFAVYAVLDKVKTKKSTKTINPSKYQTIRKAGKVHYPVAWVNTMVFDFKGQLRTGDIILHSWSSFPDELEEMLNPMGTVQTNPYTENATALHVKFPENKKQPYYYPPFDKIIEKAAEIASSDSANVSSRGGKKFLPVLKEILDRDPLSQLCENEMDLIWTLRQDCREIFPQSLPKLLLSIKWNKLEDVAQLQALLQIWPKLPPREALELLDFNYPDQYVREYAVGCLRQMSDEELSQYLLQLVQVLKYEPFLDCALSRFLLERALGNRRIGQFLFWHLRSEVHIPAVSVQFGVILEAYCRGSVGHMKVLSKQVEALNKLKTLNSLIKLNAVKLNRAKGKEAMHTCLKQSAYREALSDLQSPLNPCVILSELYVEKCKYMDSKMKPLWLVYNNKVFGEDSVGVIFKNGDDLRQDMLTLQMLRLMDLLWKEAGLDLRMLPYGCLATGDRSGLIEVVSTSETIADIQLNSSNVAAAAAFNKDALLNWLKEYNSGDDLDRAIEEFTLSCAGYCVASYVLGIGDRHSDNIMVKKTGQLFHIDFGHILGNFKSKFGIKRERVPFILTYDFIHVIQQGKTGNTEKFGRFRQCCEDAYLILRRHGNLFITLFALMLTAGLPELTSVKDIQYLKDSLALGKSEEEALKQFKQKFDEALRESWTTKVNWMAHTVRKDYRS
On to `C[C@H](Nc1nc(N)nc(N)c1C#N)c1nc2cccc(Cl)c2c(=O)n1C[C@H]1CCCNC1`, for which the IC50 was found to be 0.088 µM. Compound `C[C@H](Nc1nc(N)nc(N)c1C#N)c1nc2cccc(Cl)c2c(=O)n1C[C@@H]1CCCNC1` registered an IC50 of 0.079 µM. On the same count and under the same terms, the result for `C[C@H](Nc1ncnc(N)c1C#N)c1nc2cccc(Cl)c2c(=O)n1CCN1CCN(C)CC1` reads 0.34 µM.

In the next test the target is PIK3CD (Human) (UniProt O00329). The test is described as follows: Enzyme Assay.
Chain of PIK3CD (Human) (O00329 whole entry, looked up): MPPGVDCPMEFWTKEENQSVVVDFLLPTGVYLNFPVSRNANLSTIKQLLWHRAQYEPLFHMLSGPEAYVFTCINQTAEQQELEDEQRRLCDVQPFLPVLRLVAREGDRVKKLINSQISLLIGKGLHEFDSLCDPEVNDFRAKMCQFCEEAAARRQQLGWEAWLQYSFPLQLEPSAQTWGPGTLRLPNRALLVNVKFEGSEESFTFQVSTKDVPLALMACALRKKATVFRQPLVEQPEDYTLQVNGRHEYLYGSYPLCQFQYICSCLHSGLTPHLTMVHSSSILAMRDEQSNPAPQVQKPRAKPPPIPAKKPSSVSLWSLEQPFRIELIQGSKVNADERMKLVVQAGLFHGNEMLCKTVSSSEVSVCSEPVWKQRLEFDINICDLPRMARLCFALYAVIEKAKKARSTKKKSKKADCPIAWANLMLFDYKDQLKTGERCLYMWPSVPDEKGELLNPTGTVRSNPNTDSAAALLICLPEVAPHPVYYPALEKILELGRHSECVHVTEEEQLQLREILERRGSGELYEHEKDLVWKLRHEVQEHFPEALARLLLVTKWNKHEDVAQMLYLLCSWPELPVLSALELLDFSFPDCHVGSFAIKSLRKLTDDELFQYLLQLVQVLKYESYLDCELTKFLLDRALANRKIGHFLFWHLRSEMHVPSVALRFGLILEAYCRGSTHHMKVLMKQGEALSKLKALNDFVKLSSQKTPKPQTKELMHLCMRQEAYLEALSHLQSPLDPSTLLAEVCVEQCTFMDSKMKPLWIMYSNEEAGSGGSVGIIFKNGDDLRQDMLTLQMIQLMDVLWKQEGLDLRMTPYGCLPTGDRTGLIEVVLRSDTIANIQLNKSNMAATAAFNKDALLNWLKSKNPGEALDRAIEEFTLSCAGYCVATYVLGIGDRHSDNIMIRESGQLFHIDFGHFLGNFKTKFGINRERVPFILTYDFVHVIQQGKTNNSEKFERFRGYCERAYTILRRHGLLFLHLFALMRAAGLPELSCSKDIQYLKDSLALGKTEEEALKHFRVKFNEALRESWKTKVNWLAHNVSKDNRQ
For the compound `C[C@H](Nc1nc(N)nc(N)c1C#N)c1nc2cccc(Cl)c2c(=O)n1C[C@H]1CCCNC1`, the IC50 turned out to be 0.002 µM. Same read-out and setting: the result for `C[C@H](Nc1nc(N)nc(N)c1C#N)c1nc2cccc(Cl)c2c(=O)n1C[C@@H]1CCCNC1` reads 0.003 µM; that for `C[C@H](Nc1ncnc(N)c1C#N)c1nc2cccc(Cl)c2c(=O)n1CCN1CCN(C)CC1`, 0.011 µM.
